{"source": "paper PMC12155096", "about": "(International Journal of Molecular Sciences, 2025)", "data": [{"target": "Photinus pyralis (firefly) luciferase (Photinus pyralis, UniProt P08659)", "sequence (P08659 whole entry)": "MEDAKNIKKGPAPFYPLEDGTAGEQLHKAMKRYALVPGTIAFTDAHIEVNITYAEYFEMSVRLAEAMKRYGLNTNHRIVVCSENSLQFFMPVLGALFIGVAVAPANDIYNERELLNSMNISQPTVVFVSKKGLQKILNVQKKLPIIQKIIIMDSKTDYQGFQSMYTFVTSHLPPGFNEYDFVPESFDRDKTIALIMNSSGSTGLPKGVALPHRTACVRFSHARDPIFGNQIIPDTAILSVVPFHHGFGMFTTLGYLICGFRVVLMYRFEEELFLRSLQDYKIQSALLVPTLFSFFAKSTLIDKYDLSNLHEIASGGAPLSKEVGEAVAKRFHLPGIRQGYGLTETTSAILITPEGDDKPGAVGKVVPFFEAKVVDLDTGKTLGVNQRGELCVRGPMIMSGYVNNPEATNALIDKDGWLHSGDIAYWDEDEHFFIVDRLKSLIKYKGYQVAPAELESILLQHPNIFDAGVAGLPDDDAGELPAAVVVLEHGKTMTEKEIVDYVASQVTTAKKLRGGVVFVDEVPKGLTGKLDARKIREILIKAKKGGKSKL", "assay": "biochemical", "assay_type": "biochemical", "details": "not given", "values": [{"smiles": "CCOP(=O)([O-])OCC.CCn1cc[n+](C)c1", "Luciferase Efficacy (in parenthesis)": "86.36 ± 7.02 (-39 ± 30) %"}, {"smiles": "CNC(C)Cc1ccc2c(c1)OCO2.Cl", "note": "(stereo not shown)", "Luciferase IC50 (half-maximal inhibitory concentration)": "Inactive"}, {"smiles": "CC(=O)OC1(c2ccccc2)CCN(CCc2ccccc2)CC1", "Luciferase IC50 (half-maximal inhibitory concentration)": "Inactive"}, {"smiles": "FC(F)(F)c1ccccc1-n1ccnc1", "Luciferase IC50 (half-maximal inhibitory concentration)": "Inactive"}, {"smiles": "Cl.ClCCCN1CCN(c2cccc(Cl)c2)CC1", "Luciferase IC50": "Inactive"}, {"smiles": "CSc1ccc(C(=O)C(C)(C)N2CCOCC2)cc1", "Luciferase IC50 (half-maximal inhibitory concentration)": "Inactive"}, {"smiles": "CC(C)(C)c1cc(CCC(=O)NN)cc(C(C)(C)C)c1O", "Luciferase IC50 (half-maximal inhibitory concentration)": "Inactive"}, {"smiles": "C=CCc1cc(S(=O)(=O)c2ccc(O)c(CC=C)c2)ccc1O", "Luciferase IC50 (half-maximal inhibitory concentration)": "Inactive"}, {"smiles": "C[N+](C)(CCOc1ccccc1)Cc1cccs1.[I-]", "Luciferase IC50 (half-maximal inhibitory concentration)": "Inactive"}]}, {"target": "Photinus pyralis (firefly) luciferase (Photinus pyralis, UniProt P08659)", "assay": "biochemical", "assay_type": "biochemical", "details": "read-out: Luciferase IC50 (half-maximal inhibitory concentration)", "units": {"IC50": "µM"}, "values": [{"smiles": "CCOP(=O)([O-])OCC.CCn1cc[n+](C)c1", "IC50": 86.4}]}, {"target": "human CYP2C19 (Homo sapiens, UniProt P33261)", "sequence (P33261 whole entry)": "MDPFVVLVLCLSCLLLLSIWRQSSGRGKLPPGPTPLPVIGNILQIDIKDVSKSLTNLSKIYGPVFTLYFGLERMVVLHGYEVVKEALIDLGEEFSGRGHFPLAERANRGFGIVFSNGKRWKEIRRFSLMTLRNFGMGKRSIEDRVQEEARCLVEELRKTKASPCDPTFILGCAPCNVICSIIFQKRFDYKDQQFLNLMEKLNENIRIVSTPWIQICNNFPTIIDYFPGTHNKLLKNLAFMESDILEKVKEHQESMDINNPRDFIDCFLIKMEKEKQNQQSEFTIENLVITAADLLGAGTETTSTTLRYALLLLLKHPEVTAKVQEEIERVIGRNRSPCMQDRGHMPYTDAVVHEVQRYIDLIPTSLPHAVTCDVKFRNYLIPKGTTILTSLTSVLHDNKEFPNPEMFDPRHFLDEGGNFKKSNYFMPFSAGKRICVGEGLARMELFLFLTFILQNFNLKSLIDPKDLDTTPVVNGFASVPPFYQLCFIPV", "assay": "not given", "details": "not given", "units": {"IC50": "µM", "AC50": "µM"}, "values": [{"smiles": "CCOP(=O)([O-])OCC.CCn1cc[n+](C)c1", "CYP2C19 Efficacy (in parenthesis)": "68.44 ± 11.66 (-161 ± 32) %", "IC50": 68.4}, {"smiles": "CNC(C)Cc1ccc2c(c1)OCO2.Cl", "note": "(stereo not shown)", "CYP2C19 IC50 (half-maximal inhibitory concentration)": "Inactive"}, {"smiles": "CC(=O)OC1(c2ccccc2)CCN(CCc2ccccc2)CC1", "AC50": 36.6, "IC50": 36.6}, {"smiles": "FC(F)(F)c1ccccc1-n1ccnc1", "CYP2C19 Efficacy": "9.3 ± 5.41 (-172 ± 73) %"}, {"smiles": "Cl.ClCCCN1CCN(c2cccc(Cl)c2)CC1", "AC50": 8.86, "CYP2C19 Efficacy": "8.86 ± 2.03 (-125 ± 5) %"}, {"smiles": "CSc1ccc(C(=O)C(C)(C)N2CCOCC2)cc1", "CYP2C19 Efficacy": "0.94 ± 0.32 (-142 ± 3) %"}, {"smiles": "CC(C)(C)c1cc(CCC(=O)NN)cc(C(C)(C)C)c1O", "CYP2C19 Efficacy (in parenthesis)": "5.4 ± 1.6 (-136 ± 2) %", "IC50": 5.4}, {"smiles": "C=CCc1cc(S(=O)(=O)c2ccc(O)c(CC=C)c2)ccc1O", "CYP2C19 Efficacy (in parenthesis)": "3.47 ± 1.89 (-136 ± 7) %", "IC50": 3.47}, {"smiles": "C[N+](C)(CCOc1ccccc1)Cc1cccs1.[I-]", "CYP2C19 IC50 (half-maximal inhibitory concentration)": "Inactive"}]}, {"target": "T1, human CYP1A2 (Homo sapiens, UniProt P05177)", "T1 sequence (P05177 1-516)": "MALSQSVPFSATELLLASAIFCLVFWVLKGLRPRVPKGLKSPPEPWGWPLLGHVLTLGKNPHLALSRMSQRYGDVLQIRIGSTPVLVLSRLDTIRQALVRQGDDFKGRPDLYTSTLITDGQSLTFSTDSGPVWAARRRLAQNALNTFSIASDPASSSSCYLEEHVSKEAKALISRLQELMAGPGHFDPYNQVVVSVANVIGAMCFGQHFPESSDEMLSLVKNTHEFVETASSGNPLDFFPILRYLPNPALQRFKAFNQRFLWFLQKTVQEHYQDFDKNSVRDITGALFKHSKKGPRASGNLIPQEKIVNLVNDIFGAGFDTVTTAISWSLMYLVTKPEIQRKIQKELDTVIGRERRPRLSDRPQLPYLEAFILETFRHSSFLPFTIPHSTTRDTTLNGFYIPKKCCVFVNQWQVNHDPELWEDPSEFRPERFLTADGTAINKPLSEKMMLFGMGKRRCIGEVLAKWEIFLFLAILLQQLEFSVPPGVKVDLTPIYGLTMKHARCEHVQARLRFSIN", "assay": "not given", "details": "not given", "units": {"IC50": "µM", "AC50": "µM"}, "values": [{"smiles": "CCOP(=O)([O-])OCC.CCn1cc[n+](C)c1", "CYP1A2 Efficacy (in parenthesis)": "78.99 ± 0 (-105 ± 5) %", "IC50": 79}, {"smiles": "CNC(C)Cc1ccc2c(c1)OCO2.Cl", "note": "(stereo not shown)", "CYP1A2 IC50 (half-maximal inhibitory concentration)": "Inactive"}, {"smiles": "CC(=O)OC1(c2ccccc2)CCN(CCc2ccccc2)CC1", "CYP1A2 IC50 (half-maximal inhibitory concentration)": "Inactive"}, {"smiles": "FC(F)(F)c1ccccc1-n1ccnc1", "IC50": 4.14}, {"smiles": "Cl.ClCCCN1CCN(c2cccc(Cl)c2)CC1", "AC50": 16.1, "CYP1A2 Efficacy": "16.12 ± 1.09 (-77 ± 4) %"}, {"smiles": "CSc1ccc(C(=O)C(C)(C)N2CCOCC2)cc1", "IC50": 40.1}, {"smiles": "CC(C)(C)c1cc(CCC(=O)NN)cc(C(C)(C)C)c1O", "CYP1A2 Efficacy (in parenthesis)": "6.97 ± 1.74 (-102 ± 5) %", "IC50": 6.97}, {"smiles": "C=CCc1cc(S(=O)(=O)c2ccc(O)c(CC=C)c2)ccc1O", "CYP1A2 Efficacy (in parenthesis)": "73.87 ± 5 (-42 ± 2) %", "IC50": 73.9}, {"smiles": "C[N+](C)(CCOc1ccccc1)Cc1cccs1.[I-]", "CYP1A2 IC50 (half-maximal inhibitory concentration)": "Inactive"}]}, {"target": "human CYP2D6 (Homo sapiens, UniProt P10635)", "sequence (P10635 whole entry)": "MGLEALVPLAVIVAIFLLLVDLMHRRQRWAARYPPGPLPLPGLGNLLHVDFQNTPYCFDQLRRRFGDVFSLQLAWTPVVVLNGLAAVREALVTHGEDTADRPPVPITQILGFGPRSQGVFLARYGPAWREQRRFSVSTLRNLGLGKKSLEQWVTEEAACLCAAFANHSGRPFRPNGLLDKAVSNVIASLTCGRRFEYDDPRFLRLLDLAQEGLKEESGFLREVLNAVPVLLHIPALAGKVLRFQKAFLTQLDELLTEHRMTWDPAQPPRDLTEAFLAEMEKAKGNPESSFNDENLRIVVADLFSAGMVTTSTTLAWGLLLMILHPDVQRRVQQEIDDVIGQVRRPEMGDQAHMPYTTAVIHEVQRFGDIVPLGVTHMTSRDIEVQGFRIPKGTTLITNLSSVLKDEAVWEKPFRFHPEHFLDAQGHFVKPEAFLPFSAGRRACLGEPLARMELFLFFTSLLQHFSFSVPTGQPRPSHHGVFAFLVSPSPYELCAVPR", "assay": "not given", "details": "not given", "units": {"IC50": "µM", "AC50": "µM"}, "values": [{"smiles": "CCOP(=O)([O-])OCC.CCn1cc[n+](C)c1", "CYP2D6 Efficacy (in parenthesis)": "0.61 ± 0.29 (-97 ± 6) %", "IC50": 0.61}, {"smiles": "CNC(C)Cc1ccc2c(c1)OCO2.Cl", "note": "(stereo not shown)", "IC50": 0.4}, {"smiles": "CC(=O)OC1(c2ccccc2)CCN(CCc2ccccc2)CC1", "CYP2D6 Efficacy": "0.57 ± 0.14 (-105 ± 2) %", "IC50": 0.57}, {"smiles": "FC(F)(F)c1ccccc1-n1ccnc1", "IC50": 2.28}, {"smiles": "Cl.ClCCCN1CCN(c2cccc(Cl)c2)CC1", "AC50": 0.79, "CYP2D6 Efficacy": "0.79 ± 0.18 (-96 ± 4) %"}, {"smiles": "CSc1ccc(C(=O)C(C)(C)N2CCOCC2)cc1", "IC50": 2.53}, {"smiles": "CC(C)(C)c1cc(CCC(=O)NN)cc(C(C)(C)C)c1O", "CYP2D6 Efficacy (in parenthesis)": "34.28 ± 2.23 (-95 ± 1) %", "IC50": 34.3}, {"smiles": "C=CCc1cc(S(=O)(=O)c2ccc(O)c(CC=C)c2)ccc1O", "CYP2D6 Efficacy (in parenthesis)": "6.26 ± 1.74 (-110 ± 9) %", "IC50": 6.26}, {"smiles": "C[N+](C)(CCOc1ccccc1)Cc1cccs1.[I-]", "IC50": 0.15}]}, {"target": "CYP3A4 (Homo sapiens, UniProt P08684)", "sequence (P08684 whole entry)": "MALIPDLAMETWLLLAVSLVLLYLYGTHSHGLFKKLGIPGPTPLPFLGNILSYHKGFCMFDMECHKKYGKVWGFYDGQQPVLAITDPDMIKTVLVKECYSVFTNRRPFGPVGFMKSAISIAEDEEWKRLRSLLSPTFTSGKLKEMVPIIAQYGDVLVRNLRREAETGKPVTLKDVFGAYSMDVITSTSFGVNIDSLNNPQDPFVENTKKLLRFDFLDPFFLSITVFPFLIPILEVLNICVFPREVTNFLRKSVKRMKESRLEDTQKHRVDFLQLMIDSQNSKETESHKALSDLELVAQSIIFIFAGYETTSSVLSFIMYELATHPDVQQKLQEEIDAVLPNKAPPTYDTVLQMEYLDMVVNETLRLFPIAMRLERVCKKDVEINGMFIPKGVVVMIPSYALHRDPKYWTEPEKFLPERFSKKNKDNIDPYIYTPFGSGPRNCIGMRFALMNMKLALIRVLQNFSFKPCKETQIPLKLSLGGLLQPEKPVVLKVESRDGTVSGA", "assay": "not given", "details": "not given", "units": {"IC50": "µM", "AC50": "µM"}, "values": [{"smiles": "CCOP(=O)([O-])OCC.CCn1cc[n+](C)c1", "CYP3A4 Efficacy (in parenthesis)": "45.03 ± 9.43 (-76 ± 7) %", "IC50": 45}, {"smiles": "CNC(C)Cc1ccc2c(c1)OCO2.Cl", "note": "(stereo not shown)", "CYP3A4 IC50 (half-maximal inhibitory concentration)": "Inactive"}, {"smiles": "CC(=O)OC1(c2ccccc2)CCN(CCc2ccccc2)CC1", "AC50": 40.9, "CYP3A4 IC50 (half-maximal inhibitory concentration)": "40.89 ± 0 (145 ± 9) µM"}, {"smiles": "FC(F)(F)c1ccccc1-n1ccnc1", "IC50": 0.44}, {"smiles": "Cl.ClCCCN1CCN(c2cccc(Cl)c2)CC1", "AC50": 15.5, "CYP3A4 IC50": "15.49 ± 0 (111 ± 12) µM"}, {"smiles": "CSc1ccc(C(=O)C(C)(C)N2CCOCC2)cc1", "IC50": 3.18}, {"smiles": "CC(C)(C)c1cc(CCC(=O)NN)cc(C(C)(C)C)c1O", "CYP3A4 Efficacy (in parenthesis)": "0.14 ± 0.02 (-94 ± 4) %", "IC50": 0.14}, {"smiles": "C=CCc1cc(S(=O)(=O)c2ccc(O)c(CC=C)c2)ccc1O", "CYP3A4 Efficacy (in parenthesis)": "20.01 ± 7.14 (-71 ± 11) %", "IC50": 20}, {"smiles": "C[N+](C)(CCOc1ccccc1)Cc1cccs1.[I-]", "CYP3A4 IC50 (half-maximal inhibitory concentration)": "Inactive"}]}, {"target": "human CYP2C9 (Homo sapiens, UniProt P11712)", "sequence (P11712 whole entry)": "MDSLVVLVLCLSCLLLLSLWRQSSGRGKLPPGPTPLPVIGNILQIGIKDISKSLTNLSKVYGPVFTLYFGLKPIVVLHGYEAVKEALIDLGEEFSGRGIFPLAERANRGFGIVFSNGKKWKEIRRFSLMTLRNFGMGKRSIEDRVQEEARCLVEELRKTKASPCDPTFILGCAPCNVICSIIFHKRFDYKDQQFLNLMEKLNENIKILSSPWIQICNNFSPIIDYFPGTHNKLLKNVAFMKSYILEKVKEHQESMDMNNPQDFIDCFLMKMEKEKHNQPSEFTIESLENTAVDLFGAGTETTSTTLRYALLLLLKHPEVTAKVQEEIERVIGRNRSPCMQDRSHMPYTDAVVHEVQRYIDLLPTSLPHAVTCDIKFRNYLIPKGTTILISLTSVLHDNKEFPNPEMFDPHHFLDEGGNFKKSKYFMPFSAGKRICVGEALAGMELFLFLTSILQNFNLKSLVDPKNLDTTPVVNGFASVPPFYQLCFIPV", "assay": "not given", "details": "not given", "units": {"IC50": "µM", "AC50": "µM"}, "values": [{"smiles": "CCOP(=O)([O-])OCC.CCn1cc[n+](C)c1", "CYP2C9 Efficacy (in parenthesis)": "58.2 ± 3.94 (-117 ± 2) %", "IC50": 58.2}, {"smiles": "CNC(C)Cc1ccc2c(c1)OCO2.Cl", "note": "(stereo not shown)", "CYP2C9 IC50 (half-maximal inhibitory concentration)": "Inactive"}, {"smiles": "CC(=O)OC1(c2ccccc2)CCN(CCc2ccccc2)CC1", "AC50": 53.2, "IC50": 53.2}, {"smiles": "FC(F)(F)c1ccccc1-n1ccnc1", "IC50": 8.39}, {"smiles": "Cl.ClCCCN1CCN(c2cccc(Cl)c2)CC1", "AC50": 16.8, "CYP2C9 Efficacy": "16.75 ± 1.09 (-48 ± 5) %"}, {"smiles": "CSc1ccc(C(=O)C(C)(C)N2CCOCC2)cc1", "IC50": 23.2}, {"smiles": "CC(C)(C)c1cc(CCC(=O)NN)cc(C(C)(C)C)c1O", "CYP2C9 Efficacy (in parenthesis)": "5.92 ± 1.06 (-98 ± 3) %", "IC50": 5.92}, {"smiles": "C=CCc1cc(S(=O)(=O)c2ccc(O)c(CC=C)c2)ccc1O", "CYP2C9 Efficacy (in parenthesis)": "0.4 ± 0.13 (-67 ± 11) %", "IC50": 0.4}, {"smiles": "C[N+](C)(CCOc1ccccc1)Cc1cccs1.[I-]", "CYP2C9 IC50 (half-maximal inhibitory concentration)": "Inactive"}]}]}
